Test results reported in patent US20240246942A1, “KINASE INHIBITORS FOR THE TREATMENT OF NEURODEGENERATIVE DISEASES” (priority 2020, published 2024).

Legend:
Assay in all cases: biochemical
[1] = target: T1, panel of 374 wild-type kinases (Homo sapiens, UniProt P51812); details: read-out: % Enzyme Activity (relative to DMSO controls), kinase RSK2
T1 construct: purchased Reaction Biology Corporation

[2] = target: T2, panel of 374 wild-type kinases (Homo sapiens, UniProt Q16288); details: for remaining activity at 5 µM: read-out: % Enzyme Activity (relative to DMSO controls), kinase TRKC
T2 construct: purchased Reaction Biology Corporation

[3] = target: T3, panel of 374 wild-type kinases (Homo sapiens, UniProt Q96BR1); details: read-out: % Enzyme Activity (relative to DMSO controls), kinase SGK3/SGKL
T3 construct: purchased Reaction Biology Corporation
T3 sequence (Q96BR1 1-496): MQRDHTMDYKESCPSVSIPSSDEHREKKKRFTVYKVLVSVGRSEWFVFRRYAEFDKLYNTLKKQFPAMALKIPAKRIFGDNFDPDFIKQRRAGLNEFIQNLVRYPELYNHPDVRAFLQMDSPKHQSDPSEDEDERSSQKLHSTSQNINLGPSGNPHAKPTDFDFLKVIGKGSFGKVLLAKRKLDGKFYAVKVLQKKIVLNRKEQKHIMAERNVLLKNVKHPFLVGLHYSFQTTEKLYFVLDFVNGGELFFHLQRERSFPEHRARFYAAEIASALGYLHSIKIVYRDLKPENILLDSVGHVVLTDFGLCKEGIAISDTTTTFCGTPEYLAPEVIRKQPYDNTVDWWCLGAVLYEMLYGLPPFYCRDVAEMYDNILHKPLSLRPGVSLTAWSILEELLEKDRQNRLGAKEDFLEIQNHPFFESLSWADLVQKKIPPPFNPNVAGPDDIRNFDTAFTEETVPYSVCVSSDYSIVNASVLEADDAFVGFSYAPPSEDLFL

[4] = target: T4, panel of 374 wild-type kinases (Homo sapiens, UniProt Q96PY6); details: read-out: % Enzyme Activity (relative to DMSO controls), NEK1
T4 construct: purchased Reaction Biology Corporation
T4 sequence (Q96PY6 1-1258): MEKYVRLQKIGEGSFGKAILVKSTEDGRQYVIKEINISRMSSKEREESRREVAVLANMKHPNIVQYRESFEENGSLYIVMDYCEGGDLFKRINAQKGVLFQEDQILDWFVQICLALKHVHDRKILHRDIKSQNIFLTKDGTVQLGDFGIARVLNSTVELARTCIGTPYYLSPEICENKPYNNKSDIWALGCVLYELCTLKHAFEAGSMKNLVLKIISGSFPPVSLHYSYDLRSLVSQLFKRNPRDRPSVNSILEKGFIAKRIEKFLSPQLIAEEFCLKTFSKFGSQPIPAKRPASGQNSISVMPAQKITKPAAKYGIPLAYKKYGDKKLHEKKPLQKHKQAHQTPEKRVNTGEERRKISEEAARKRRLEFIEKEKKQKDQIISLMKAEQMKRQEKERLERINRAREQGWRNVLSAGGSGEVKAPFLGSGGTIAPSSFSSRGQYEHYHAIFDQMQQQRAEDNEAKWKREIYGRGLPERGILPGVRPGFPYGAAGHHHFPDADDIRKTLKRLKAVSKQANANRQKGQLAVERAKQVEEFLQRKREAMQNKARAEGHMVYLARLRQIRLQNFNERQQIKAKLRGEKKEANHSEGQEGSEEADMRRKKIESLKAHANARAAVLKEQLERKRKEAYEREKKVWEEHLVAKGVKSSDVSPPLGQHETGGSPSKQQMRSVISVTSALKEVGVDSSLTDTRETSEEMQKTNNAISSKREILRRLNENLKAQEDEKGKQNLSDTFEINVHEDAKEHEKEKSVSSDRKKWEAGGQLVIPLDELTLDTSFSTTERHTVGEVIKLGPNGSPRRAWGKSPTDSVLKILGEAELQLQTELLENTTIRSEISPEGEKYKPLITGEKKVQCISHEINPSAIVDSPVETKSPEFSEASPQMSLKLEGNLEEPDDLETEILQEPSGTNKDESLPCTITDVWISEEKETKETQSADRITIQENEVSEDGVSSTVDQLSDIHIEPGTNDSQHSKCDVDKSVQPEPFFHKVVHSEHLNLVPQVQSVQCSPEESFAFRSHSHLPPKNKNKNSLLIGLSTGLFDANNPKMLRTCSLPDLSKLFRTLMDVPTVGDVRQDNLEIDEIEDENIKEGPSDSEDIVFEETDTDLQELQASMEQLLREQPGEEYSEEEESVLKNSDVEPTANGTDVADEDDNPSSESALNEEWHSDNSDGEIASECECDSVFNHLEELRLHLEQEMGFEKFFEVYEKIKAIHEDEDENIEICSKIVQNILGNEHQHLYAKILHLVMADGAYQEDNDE

[5] = target: T5, panel of 374 wild-type kinases (Homo sapiens, UniProt Q9NWZ3); details: read-out: % Enzyme Activity (relative to DMSO controls), IRAK4
T5 construct: purchased Reaction Biology Corporation
T5 sequence (Q9NWZ3 1-460): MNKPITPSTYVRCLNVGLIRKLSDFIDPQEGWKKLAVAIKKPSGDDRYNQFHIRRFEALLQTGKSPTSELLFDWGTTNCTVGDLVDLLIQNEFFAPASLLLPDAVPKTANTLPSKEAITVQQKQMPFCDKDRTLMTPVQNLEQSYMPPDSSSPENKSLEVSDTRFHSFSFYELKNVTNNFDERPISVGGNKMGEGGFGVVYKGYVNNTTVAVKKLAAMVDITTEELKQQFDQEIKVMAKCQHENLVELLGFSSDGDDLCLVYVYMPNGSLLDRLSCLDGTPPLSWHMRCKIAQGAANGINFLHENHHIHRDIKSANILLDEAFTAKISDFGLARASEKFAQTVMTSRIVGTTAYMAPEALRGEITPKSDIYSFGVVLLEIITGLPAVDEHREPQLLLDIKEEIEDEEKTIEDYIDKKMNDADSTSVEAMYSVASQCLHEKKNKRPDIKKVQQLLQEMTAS

T2 sequence (Q16288 32-839): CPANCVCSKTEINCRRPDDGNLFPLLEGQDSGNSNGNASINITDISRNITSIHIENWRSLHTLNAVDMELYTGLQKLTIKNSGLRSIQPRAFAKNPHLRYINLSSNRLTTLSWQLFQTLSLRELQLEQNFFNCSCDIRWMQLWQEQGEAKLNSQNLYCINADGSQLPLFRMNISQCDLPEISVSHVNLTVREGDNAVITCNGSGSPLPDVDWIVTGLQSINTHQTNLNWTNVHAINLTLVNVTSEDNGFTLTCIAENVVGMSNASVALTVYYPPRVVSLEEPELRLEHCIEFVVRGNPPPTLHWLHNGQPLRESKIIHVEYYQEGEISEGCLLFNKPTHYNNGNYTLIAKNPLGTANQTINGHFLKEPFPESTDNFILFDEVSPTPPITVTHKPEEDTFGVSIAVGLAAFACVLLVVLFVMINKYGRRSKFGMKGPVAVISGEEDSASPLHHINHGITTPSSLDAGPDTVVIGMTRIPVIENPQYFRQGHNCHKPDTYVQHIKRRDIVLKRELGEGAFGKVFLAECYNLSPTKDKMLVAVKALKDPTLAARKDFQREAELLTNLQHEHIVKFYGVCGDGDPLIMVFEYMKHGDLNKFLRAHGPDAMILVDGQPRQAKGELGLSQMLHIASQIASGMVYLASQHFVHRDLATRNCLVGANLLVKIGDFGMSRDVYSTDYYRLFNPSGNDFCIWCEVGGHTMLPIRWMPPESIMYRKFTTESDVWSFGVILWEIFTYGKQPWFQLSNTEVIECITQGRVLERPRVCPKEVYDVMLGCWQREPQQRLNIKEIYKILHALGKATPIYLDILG
T1 sequence (P51812 whole entry): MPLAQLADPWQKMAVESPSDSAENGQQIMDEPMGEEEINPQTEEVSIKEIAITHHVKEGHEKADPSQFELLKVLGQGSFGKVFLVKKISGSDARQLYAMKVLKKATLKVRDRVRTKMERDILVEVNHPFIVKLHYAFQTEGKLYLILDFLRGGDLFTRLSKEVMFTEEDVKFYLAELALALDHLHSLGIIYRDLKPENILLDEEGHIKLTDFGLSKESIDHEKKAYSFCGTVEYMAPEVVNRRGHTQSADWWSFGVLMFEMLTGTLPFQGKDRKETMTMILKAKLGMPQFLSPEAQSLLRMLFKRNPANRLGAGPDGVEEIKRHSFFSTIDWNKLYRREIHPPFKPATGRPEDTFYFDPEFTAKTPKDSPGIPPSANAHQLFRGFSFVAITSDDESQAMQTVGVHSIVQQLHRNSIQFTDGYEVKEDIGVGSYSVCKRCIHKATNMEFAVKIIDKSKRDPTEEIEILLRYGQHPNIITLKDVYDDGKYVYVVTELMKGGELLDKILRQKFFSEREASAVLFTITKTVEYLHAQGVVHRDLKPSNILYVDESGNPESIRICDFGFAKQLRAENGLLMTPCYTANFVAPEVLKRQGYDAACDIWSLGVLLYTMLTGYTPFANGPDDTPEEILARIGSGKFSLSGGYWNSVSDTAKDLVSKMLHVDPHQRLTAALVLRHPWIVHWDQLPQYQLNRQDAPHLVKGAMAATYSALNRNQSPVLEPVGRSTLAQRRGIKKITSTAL

| SMILES | remaining activity at 5 µM [1] [%] | remaining activity at 5 µM [2] [%] | remaining activity at 5 µM [3] [%] | remaining activity at 5 µM [4] [%] | remaining activity at 5 µM [5] [%] | remaining activity at 10 µM ([1]; 10 uM) [%] | remaining activity at 10 µM ([2]; kinase TRKC, 10 uM, read-out: % Enzyme Activity (relative to DMSO controls)) [%] | remaining activity at 10 µM ([3]; 10 uM) [%] | remaining activity at 10 µM ([4]; 10 uM) [%] | remaining activity at 10 µM ([5]; 10 uM) [%] |
| --- | --- | --- | --- | --- | --- | --- | --- | --- | --- | --- |
| O=C(Nc1cnn(-c2csc(C(=O)NC3COC3)c2)c1)Nc1ccccc1Cl [Compound 17, 4-(4-(3-(2-chlorophenyl)ureido)-1H-pyrazol-1-yl)-N-(oxetan-3-yl)thiophene-2-carboxamide] | 101 | 64.3 | 93.8 | 115 | 92.1 |  |  |  |  |  |
| O=C(Nc1cnn(-c2csc(C(=O)NC3COC3)c2)c1)Nc1c(F)cccc1Cl [Compound 25, 4-(4-(3-(2-chloro-6-fluorophenyl)ureido)-1H-pyrazol-1-yl)-N-(oxetan-3-yl)thiophene-2-carboxamide] | 79.9 | 38.6 | 95.3 | 77.2 | 97.8 |  |  |  |  |  |
| Cc1sc(C(=O)NC2COC2)cc1-n1cc(NC(=O)Nc2c(F)cccc2Cl)cn1 [Compound 27, 4-(4-(3-(2-chloro-6-fluorophenyl)ureido)-1H-pyrazol-1-yl)-5-methyl-N-(oxetan-3-yl)thiophene-2-carboxamide] |  |  |  |  |  | 73 | 86 | 90.1 | 90.4 | 103 |
